Data on eleven molecules can be found in ChEMBL document CHEMBL1909570, “Synthesis and antibacterial activity of N4-mono alkyl derivatives of novel glycopeptide LYV07ww01” (2011).

≈ marks a conversion by molar mass, not a printed value. A value given as a limit tells only on which side of the number the result lay.

Format in all cases: functional
Assay [1] deals with Staphylococcus aureus. Nature of the assay: Antibacterial activity against Staphylococcus aureus 26003 by CLSI agar microdilution method.
Assay [2] concerns Streptococcus pneumoniae. Nature of the assay: Antibacterial activity against Streptococcus pneumoniae 31002 by CLSI agar microdilution method.
A further assay concerns Staphylococcus. Description: Antibacterial activity against Staphylococcus albus 26101 by CLSI agar microdilution method.
Assay [3] concerns Enterococcus faecium. Description: Antibacterial activity against Enterococcus faecium 32220 by CLSI agar microdilution method.
The next assay concerns Streptococcus. Description: Antibacterial activity against Streptococcus gamma 32206 by CLSI agar microdilution method.
The subject of assay [4] is Staphylococcus epidermidis. Nature of the assay: Antibacterial activity against Staphylococcus epidermidis 26069 by CLSI agar microdilution method.
The subject of assay [5] is Staphylococcus aureus. Description: microbe, parasite or virus in culture. The settings on record: ATCC 25923.
Description: Antibacterial activity against methicillin-sensitive Staphylococcus aureus ATCC 25923 by CLSI agar microdilution method
In assay [6] the test system is Staphylococcus aureus. Description: microbe, parasite or virus in culture. The settings on record: ATCC 33591.
Description: Antibacterial activity against methicillin-resistant Staphylococcus aureus ATCC 33591 by CLSI agar microdilution method
Assay [7] has as its system Enterococcus faecalis. Nature of the assay: microbe, parasite or virus in culture. The conditions noted are these: ATCC 29212.
Description: Antibacterial activity against vancomycin-sensitive Enterococcus faecalis ATCC 29212 by CLSI agar microdilution method
Assay [8] deals with Enterococcus faecalis. Nature of the assay: microbe, parasite or virus in culture. The conditions noted are these: ATCC 51299.
Description: Antibacterial activity against vancomycin-resistant Enterococcus faecalis ATCC 51299 by CLSI agar microdilution method
Assay [9] has as its system Enterococcus faecium. Description: Antibacterial activity against vancomycin-sensitive Enterococcus faecium ATCC 35667 by CLSI agar microdilution method.
The test system of assay [10] is Enterococcus faecium. Description: Antibacterial activity against vancomycin-resistant Enterococcus faecium MEFA 0039 by CLSI agar microdilution method.
Assay [11] relates to Streptococcus pneumoniae. Nature of the assay: Antibacterial activity against penicillin-intermediate Streptococcus pneumoniae ATCC 49619 by CLSI broth microdilution method.
The subject of assay [12] is Streptococcus pneumoniae. Nature of the assay: Antibacterial activity against penicillin-resistant Streptococcus pneumoniae MSPN 0003 by CLSI broth microdilution method.

For `CN[C@H](CC(C)C)C(=O)N[C@H]1C(=O)N[C@@H](CC(N)=O)C(=O)N[C@H]2C(=O)N[C@H]3C(=O)N[C@H](C(=O)N[C@@H](C(=O)O)c4cc(O)cc(O)c4-c4cc3ccc4O)[C@H](O[C@H]3C[C@](C)(N)[C@H](O)[C@H](C)O3)c3ccc(c(Cl)c3)Oc3cc2cc(c3O[C@@H]2O[C@H](CO)[C@@H](O)[C@H](O)[C@H]2O[C@H]2C[C@](C)(NCc3cccc4ccccc34)[C@H](O)[C@H](C)O2)Oc2ccc(cc2Cl)[C@H]1O`, the MIC was 1.56 µg/mL (≈ 0.9 µM) in the assay on Staphylococcus aureus [1]; 0.78 µg/mL (≈ 0.45 µM) against Streptococcus pneumoniae [2]; 1.56 µg/mL (≈ 0.9 µM) against Staphylococcus; 1.56 µg/mL (≈ 0.9 µM) in the assay on Enterococcus faecium [3]; 6.25 µg/mL (≈ 3.61 µM) in the assay with Streptococcus; more than 25 µg/mL in [4].

Regarding `CN[C@H](CC(C)C)C(=O)N[C@H]1C(=O)N[C@@H](CC(N)=O)C(=O)N[C@H]2C(=O)N[C@H]3C(=O)N[C@H](C(=O)N[C@@H](C(=O)O)c4cc(O)cc(O)c4-c4cc3ccc4O)[C@H](O[C@H]3C[C@](C)(N)[C@H](O)[C@H](C)O3)c3ccc(c(Cl)c3)Oc3cc2cc(c3O[C@@H]2O[C@H](CO)[C@@H](O)[C@H](O)[C@H]2O[C@H]2C[C@](C)(NCc3ccc(Sc4ccccc4)cc3)[C@H](O)[C@H](C)O2)Oc2ccc(cc2Cl)[C@H]1O`, the MIC is 3.13 µg/mL (≈ 1.75 µM) in the assay on Staphylococcus aureus [1]; 3.13 µg/mL (≈ 1.75 µM) against Streptococcus pneumoniae [2]; 3.13 µg/mL (≈ 1.75 µM) against Staphylococcus; 3.13 µg/mL (≈ 1.75 µM) in the assay on Enterococcus faecium [3]; 3.13 µg/mL (≈ 1.75 µM) in the assay on Streptococcus; more than 25 µg/mL in assay [4].

As for `CN[C@H](CC(C)C)C(=O)N[C@H]1C(=O)N[C@@H](CC(N)=O)C(=O)N[C@H]2C(=O)N[C@H]3C(=O)N[C@H](C(=O)N[C@@H](C(=O)O)c4cc(O)cc(O)c4-c4cc3ccc4O)[C@H](O[C@H]3C[C@](C)(N)[C@H](O)[C@H](C)O3)c3ccc(c(Cl)c3)Oc3cc2cc(c3O[C@@H]2O[C@H](CO)[C@@H](O)[C@H](O)[C@H]2O[C@H]2C[C@](C)(NCc3ccc(Cl)cc3Cl)[C@H](O)[C@H](C)O2)Oc2ccc(cc2Cl)[C@H]1O`, the MIC stood at 3.13 µg/mL (≈ 1.79 µM) in the assay on Staphylococcus aureus [1]; 3.13 µg/mL (≈ 1.79 µM) with Streptococcus pneumoniae [2]; 3.13 µg/mL (≈ 1.79 µM) against Staphylococcus; 1.56 µg/mL (≈ 0.891 µM) with Enterococcus faecium [3]; 1.56 µg/mL (≈ 0.891 µM) with Streptococcus; 25 µg/mL (≈ 14.3 µM) in [4].

On to `CN[C@H](CC(C)C)C(=O)N[C@H]1C(=O)N[C@@H](CC(N)=O)C(=O)N[C@H]2C(=O)N[C@H]3C(=O)N[C@H](C(=O)N[C@@H](C(=O)O)c4cc(O)cc(O)c4-c4cc3ccc4O)[C@H](O[C@H]3C[C@](C)(N)[C@H](O)[C@H](C)O3)c3ccc(c(Cl)c3)Oc3cc2cc(c3O[C@@H]2O[C@H](CO)[C@@H](O)[C@H](O)[C@H]2O[C@H]2C[C@](C)(N)[C@H](O)[C@H](C)O2)Oc2ccc(cc2Cl)[C@H]1O`, for which the MIC against Staphylococcus aureus [1] was 0.39 µg/mL (≈ 0.245 µM); in the assay with Streptococcus pneumoniae [2] it was 0.098 µg/mL (≈ 0.0615 µM); in the assay with Staphylococcus, 0.78 µg/mL (≈ 0.49 µM); against Enterococcus faecium [3], 3.13 µg/mL (≈ 1.97 µM); against Streptococcus, 0.78 µg/mL (≈ 0.49 µM); in assay [4] it was more than 25 µg/mL. Moreover, the MIC against Staphylococcus aureus [5] is 0.25 µg/mL (≈ 0.157 µM); against Staphylococcus aureus [6], 0.125 µg/mL (≈ 0.0785 µM); in the assay with Enterococcus faecalis [7], 0.25 µg/mL (≈ 0.157 µM); in the assay on Enterococcus faecalis [8], 0.5 µg/mL (≈ 0.314 µM); against Enterococcus faecium [9] it was 0.125 µg/mL (≈ 0.0785 µM); against Enterococcus faecium [10] it was 8 µg/mL (≈ 5.02 µM). Moreover, the MIC with Streptococcus pneumoniae [11] worked out at 0.063 µg/mL (≈ 0.0396 µM); in the assay on Streptococcus pneumoniae [12], 0.125 µg/mL (≈ 0.0785 µM).

Regarding `CN[C@H](CC(C)C)C(=O)N[C@H]1C(=O)N[C@@H](CC(N)=O)C(=O)N[C@H]2C(=O)N[C@H]3C(=O)N[C@H](C(=O)N[C@@H](C(=O)O)c4cc(O)cc(O)c4-c4cc3ccc4O)[C@H](O[C@H]3C[C@](C)(N)[C@H](O)[C@H](C)O3)c3ccc(c(Cl)c3)Oc3cc2cc(c3O[C@@H]2O[C@H](CO)[C@@H](O)[C@H](O)[C@H]2O[C@H]2C[C@](C)(NCc3ccc4ccccc4c3)[C@H](O)[C@H](C)O2)Oc2ccc(cc2Cl)[C@H]1O`, the MIC in the assay on Staphylococcus aureus [1] was 1.56 µg/mL (≈ 0.9 µM); in the assay with Streptococcus pneumoniae [2], 1.56 µg/mL (≈ 0.9 µM); against Staphylococcus, 3.13 µg/mL (≈ 1.81 µM); in the assay with Enterococcus faecium [3], 3.13 µg/mL (≈ 1.81 µM); against Streptococcus, 0.78 µg/mL (≈ 0.45 µM); in assay [4], more than 25 µg/mL.

`CCCCCCOc1ccc(CN[C@@]2(C)C[C@H](O[C@H]3[C@H](Oc4c5cc6cc4Oc4ccc(cc4Cl)[C@@H](O[C@H]4C[C@](C)(N)[C@H](O)[C@H](C)O4)[C@@H]4NC(=O)[C@H](NC(=O)[C@@H]6NC(=O)[C@H](CC(N)=O)NC(=O)[C@H](NC(=O)[C@@H](CC(C)C)NC)[C@H](O)c6ccc(c(Cl)c6)O5)c5ccc(O)c(c5)-c5c(O)cc(O)cc5[C@H](C(=O)O)NC4=O)O[C@H](CO)[C@@H](O)[C@@H]3O)O[C@@H](C)[C@H]2O)cc1`: the MIC is 6.25 µg/mL (≈ 3.51 µM) with Staphylococcus aureus [1]; 3.13 µg/mL (≈ 1.76 µM) in the assay with Streptococcus pneumoniae [2]; 6.25 µg/mL (≈ 3.51 µM) in the assay with Staphylococcus; 6.25 µg/mL (≈ 3.51 µM) in the assay with Enterococcus faecium [3]; 3.13 µg/mL (≈ 1.76 µM) in the assay on Streptococcus; more than 25 µg/mL in assay [4].

For the molecule `CN[C@H](CC(C)C)C(=O)N[C@H]1C(=O)N[C@@H](CC(N)=O)C(=O)N[C@H]2C(=O)N[C@H]3C(=O)N[C@H](C(=O)N[C@H](C(=O)O)c4cc(O)cc(O)c4-c4cc3ccc4O)[C@H](O)c3ccc(c(Cl)c3)Oc3cc2cc(c3O[C@@H]2O[C@H](CO)[C@@H](O)[C@H](O)[C@H]2O[C@H]2C[C@](C)(N)[C@H](O)[C@H](C)O2)Oc2ccc(cc2Cl)[C@H]1O.Cl` [VANCOMYCIN HYDROCHLORIDE], the MIC against Staphylococcus aureus [1] was 0.78 µg/mL; against Streptococcus pneumoniae [2] it was 0.39 µg/mL; in the assay with Staphylococcus it was 3.13 µg/mL; in the assay with Enterococcus faecium [3], 6.25 µg/mL; against Streptococcus, 6.25 µg/mL; in assay [4] it was more than 25 µg/mL. In addition, the MIC is 1 µg/mL against Enterococcus faecalis [7]; 8 µg/mL in the assay with Enterococcus faecalis [8]; 0.25 µg/mL against Enterococcus faecium [9]; more than 32 µg/mL against Enterococcus faecium [10]; 0.125 µg/mL in the assay on Streptococcus pneumoniae [11]; 0.25 µg/mL against Streptococcus pneumoniae [12].

As to `CCCCCCCCCCNCCN[C@@]1(C)C[C@H](O[C@H]2[C@H](Oc3c4cc5cc3Oc3ccc(cc3Cl)[C@@H](O[C@H]3C[C@](C)(N)[C@H](O)[C@H](C)O3)[C@@H]3NC(=O)[C@H](NC(=O)[C@@H]5NC(=O)[C@H](CC(N)=O)NC(=O)[C@H](NC(=O)[C@@H](CC(C)C)NC)[C@H](O)c5ccc(c(Cl)c5)O4)c4ccc(O)c(c4)-c4c(O)cc(O)cc4[C@H](C(=O)O)NC3=O)O[C@H](CO)[C@@H](O)[C@@H]2O)O[C@@H](C)[C@H]1O`, the MIC is 6.25 µg/mL (≈ 3.52 µM) in the assay with Staphylococcus aureus [1]; 3.13 µg/mL (≈ 1.76 µM) in the assay on Streptococcus pneumoniae [2]; 6.25 µg/mL (≈ 3.52 µM) against Staphylococcus; 12.5 µg/mL (≈ 7.04 µM) in the assay on Enterococcus faecium [3]; 3.13 µg/mL (≈ 1.76 µM) against Streptococcus; more than 25 µg/mL in [4].

On to `CN[C@H](CC(C)C)C(=O)N[C@H]1C(=O)N[C@@H](CC(N)=O)C(=O)N[C@H]2C(=O)N[C@H]3C(=O)N[C@H](C(=O)N[C@@H](C(=O)O)c4cc(O)cc(O)c4-c4cc3ccc4O)[C@H](O[C@H]3C[C@](C)(N)[C@H](O)[C@H](C)O3)c3ccc(c(Cl)c3)Oc3cc2cc(c3O[C@@H]2O[C@H](CO)[C@@H](O)[C@H](O)[C@H]2O[C@H]2C[C@](C)(NCc3ccc(Oc4ccc(OC)cc4)cc3)[C@H](O)[C@H](C)O2)Oc2ccc(cc2Cl)[C@H]1O`, for which the MIC against Staphylococcus aureus [1] is 1.56 µg/mL (≈ 0.864 µM); against Streptococcus pneumoniae [2], 1.56 µg/mL (≈ 0.864 µM); against Staphylococcus, 3.13 µg/mL (≈ 1.73 µM); against Enterococcus faecium [3], 1.56 µg/mL (≈ 0.864 µM); against Streptococcus, 1.56 µg/mL (≈ 0.864 µM); in [4], more than 25 µg/mL.

For the molecule `CN[C@H](CC(C)C)C(=O)N[C@H]1C(=O)N[C@@H](CC(N)=O)C(=O)N[C@H]2C(=O)N[C@H]3C(=O)N[C@H](C(=O)N[C@@H](C(=O)O)c4cc(O)cc(O)c4-c4cc3ccc4O)[C@H](O[C@H]3C[C@](C)(N)[C@H](O)[C@H](C)O3)c3ccc(c(Cl)c3)Oc3cc2cc(c3O[C@@H]2O[C@H](CO)[C@@H](O)[C@H](O)[C@H]2O[C@H]2C[C@](C)(NCc3ccc(-c4ccccc4)cc3)[C@H](O)[C@H](C)O2)Oc2ccc(cc2Cl)[C@H]1O`, the MIC against Staphylococcus aureus [1] came out at 3.13 µg/mL (≈ 1.78 µM); in the assay on Streptococcus pneumoniae [2] it was 1.56 µg/mL (≈ 0.887 µM); against Staphylococcus it was 1.56 µg/mL (≈ 0.887 µM); in the assay with Enterococcus faecium [3], 1.56 µg/mL (≈ 0.887 µM); with Streptococcus, 0.78 µg/mL (≈ 0.444 µM); in [4] it was 6.25 µg/mL (≈ 3.55 µM).

As to `CN[C@H](CC(C)C)C(=O)N[C@H]1C(=O)N[C@@H](CC(N)=O)C(=O)N[C@H]2C(=O)N[C@H]3C(=O)N[C@H](C(=O)N[C@@H](C(=O)O)c4cc(O)cc(O)c4-c4cc3ccc4O)[C@H](O[C@H]3C[C@](C)(N)[C@H](O)[C@H](C)O3)c3ccc(c(Cl)c3)Oc3cc2cc(c3O[C@@H]2O[C@H](CO)[C@@H](O)[C@H](O)[C@H]2O[C@H]2C[C@](C)(NCc3ccc(Cl)c(Cl)c3)[C@H](O)[C@H](C)O2)Oc2ccc(cc2Cl)[C@H]1O`, the MIC against Staphylococcus aureus [1] was 3.13 µg/mL (≈ 1.79 µM); against Streptococcus pneumoniae [2] it was 0.78 µg/mL (≈ 0.445 µM); with Staphylococcus, 3.13 µg/mL (≈ 1.79 µM); against Enterococcus faecium [3] it was 6.25 µg/mL (≈ 3.57 µM); against Streptococcus it was 0.78 µg/mL (≈ 0.445 µM); in assay [4] it was more than 25 µg/mL.
